Results as given in patent US11370769B2, “TRPC5 inhibitors and methods of using same” (BOARD OF REGENTS OF THE UNIVERSITY OF NEBRASKA, priority 2017, dated 2022).

Tests used:
Dahl S rats = experiment: Dahl salt-sensitive rat model of hypertension-induced FSGS; assay type: in vivo
Protocol: Animals and chemicals: Littermates of wild-type (WT) and AT1R TgNeph-hAT1R/185 transgenic (AT1R Tg) rats were housed under a controlled environment with a 12-hour light-dark cycle and access to food and water ad libitum, unless otherwise described. All animal experiments were performed in accordance to the guidelines established and approved by the Animal Care and Use Committee at Brigham and Women's Hospital, Harvard Medical School (Animal Protocol No. 01538). AT1R Tg rats were placed in the Onset cohort when measured proteinuria was >5 mg/day (at approximately 12 weeks of age) on two separate 24-hour urine collections. AT1R Tg rats were placed in the Advanced cohort when measured proteinuria was >25 mg/day (at approximately 18 weeks of age) on two separate 24-hour urine collections. These thresholds were determined after detailed histologic and phenotypic characterization of AT1R Tg rats compared to WT littermates (all combined, n=91 WT rats and n=122 AT1R Tg rats were studied). The Dahl salt-sensitive (S) inbred strain is maintained at University of Mississippi Medical Center (UMMC) and was originally obtained from University of Toledo-College of Medicine (SS/Jr). All animal experiments performed at UMMC were in accordance to the guidelines established and approved by the Institutional Animal Care and Use Committee. Animals used for this studied were provided either low-salt diet [TD7034, 0.3% NaCl and/or high-salt diet [TD94217, 2.0% NaCl] from Harlan Teklad, Madison, Wis. For onset study, at 4 weeks of age, groups of age-matched male S were weaned to the low-salt diet and divided into two groups: vehicle (n=8) and AC1903 groups (n=8). At 6 weeks of age, both groups were placed on the high-salt diet and concurrently treated with either vehicle or AC1903 for 1-week (Onset). For Advanced study, similarly at 4 weeks of age, groups of age-matched male S were weaned to the low-salt diet and divided into two groups: vehicle (n=9) and AC1903 groups (n=11). At 6 weeks of age, both groups were placed on the high-salt diet. At week 7, concurrent with high-salt diet, animals were treated with either vehicle or AC1903 for 1-week (Advanced). At the conclusion of each study, animals were initially anesthetized under 2-3% isoflurane/O2 gas, a catheter attached to a fluid filled pressure transducer was placed in the aorta, isoflurane gas was reduced to 1.5%, and mean arterial pressure was measured for ˜5 min period using PowerLab 4/30 system (ADI Instruments, Co) as done previously. All chemicals were purchased from Sigma-Aldrich unless otherwise described.
Chemical preparation and IP administration: ML204 and AC1903 were prepared from powder in a single batch for each in vivo experiment to avoid variability. Immediately prior to injections, ML204 or AC1903 solution was placed on a heated shaker at 48° C. and 800 RPM. Vehicle was prepared in the same fashion. Injection volume was determined by body weight (2 mL vehicle/compound per kg body weight). Body weight was measured at the time of injection.
Urine collection and assay: For urine collections, rats were housed individually in a metabolic cage supplied with food and water. Urine was collected into a 50 mL falcon tube for 24 hours. Total urine volume was measured and then centrifuged at 3,200 rcf for 10 min at 4° C. Albumin quantification was done according to previously published protocol (11), involving multiple dilutions of urine from each animal compared to Bovine Serum Albumin (BSA) standards. Coumassie Blue stained gels were quantified by densitometry using ImageJ software. As an additional control, the rat ELISA Albumin kit (Exocell) was used for albumin quantification according to the manufacturer's recommendations and yielded the same results. Urine protein was measured using QuanTtest® Red Total Protein Assay System (Quantimetrix, Redondo Beach, Calif.) and expressed as mg protein/24 hours. […]

kinase = experiment: standard kinase profiling assays; assay type: biochemical

## c1ccc(Cn2c(NCc3ccco3)nc3ccccc32)cc1 [AC1903]
Dahl S rats; AC1903 treated Dahl S rats, stated similar to WT and AC1903-treated AT1R Tg rats
  numbers of podocytes per glomerulus: approximately 120 podocytes/glom
Dahl S rats; AC1903 treatment
  BUN: no effect
  body weight: no effect
  creatinine: no effect
  mean arterial pressure (MAP): did not affect
Dahl S rats; Advanced, AC1903 50 mg/kg
  numbers of podocytes per glomerulus compared to vehicle-treated controls: higher
Dahl S rats; Advanced: 50 mg/kg, treatment day 7 to day 14 of 2% NaCl
  proteinuria: significant suppression of proteinuria
Dahl S rats; Onset: 50 mg/kg twice daily i.p. from start of 2% NaCl diet, 1 week
  rate of progressive proteinuria: significantly reduced
kinase
  off-target effects in kinase profiling: not found to have any off-target effects
